Several values for one entry are separate records, joined by “and”; a condition that tells them apart may be missing. Identical values can stand only once.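 Method: 48-hour compound exposure of cells in 96-well plates, five concentrations, linear interpolation of endpoints. The concentration for 50% growth inhibition is given as GI50. TGI denotes the concentration required for complete inhibition of growth.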

The test deals with MDA-MB-468 breast. Briefly: growth of human tumour cells (NCI), 48 h.
Consider `COc1ccc(NC(=O)n2nc(/C=C\c3ccc(O)c(OC)c3)cc2/C=C\c2ccc(O)c(OC)c2)cc1`, for which the GI50 is 3550 nM and the TGI amounted to 21600 nM.

In the case of `CC[C@H](Nc1nc(N)nc(C2CC2)c1C#N)c1nc2cccc(NCc3ccc(C(=O)NO)cc3)c2c(=O)n1-c1ccccc1`, the GI50 is 1730 nM and the TGI was determined as 4870 nM.

Turning to `CC[C@]1(O)C[C@@H]2CN(CCc3c([nH]c4ccccc34)[C@@](C(=O)OC)(c3cc4c(cc3OC)N(C)[C@H]3[C@@](O)(C(N)=O)[C@H](O)[C@]5(CC)[C@@H]6C[C@@H]6CN6CC[C@]43[C@@H]65)C2)C1`, the GI50 is less than 3.33 nM and the TGI is 262 nM.

For the molecule `Oc1c(Cl)cc(Cl)cc1Sc1cc(Cl)cc(Cl)c1O`, the GI50 is 2810 nM and 2590 nM; the TGI was 8850 nM and 7830 nM.

For the molecule `Cn1cc(C2=C(c3cn(C)c4cc(N)ccc34)C(=O)NC2=O)c2ccccc21`, the GI50 is 1560 nM and the TGI turned out to be 7970 nM.

As for `Cc1cnc(Nc2ccc(OCCN3CCCC3)cc2)nc1Nc1cccc(S(=O)(=O)NC(C)(C)C)c1`, the GI50 was 74.1 nM and 483 nM; the TGI is 792 nM and 3110 nM.

For the molecule `CC[C@@]12C=CCN3CC[C@]4(c5cc(NC(=O)COc6cc(OCC(=O)Nc7cc8c(cc7OC)N(C)[C@H]7[C@@](O)(C(=O)OC)[C@H](OC(C)=O)[C@]9(CC)C=CCN%10CC[C@]87[C@@H]%109)cc7oc(-c8ccccc8)cc(=O)c67)c(OC)cc5N(C)[C@@H]4[C@](O)(C(=O)OC)[C@H]1OC(C)=O)[C@H]32`, the GI50 is 2250 nM and the TGI is 8870 nM.

Regarding `CCOC(=O)Nc1nc2cc(OCC)ccc2s1`, the GI50 was 2620 nM and the TGI is greater than 100000 nM.

In the case of `CC(C(=O)O)c1ccc(-c2ccccc2)c(F)c1` (centres undefined), the GI50 is greater than 100000 nM and the TGI was greater than 100000 nM.

Consider `Cc1cc2nc(-c3c(N)ncc(C#N)c3-c3ccc(Cl)cc3)[nH]c2cc1C`, for which the GI50 was 12400 nM and the TGI was found to be 51500 nM.

As for `CCCCCCNC(=O)n1cc(F)c(=O)[nH]c1=O`, the GI50 was 10000 nM and the TGI worked out at 26300 nM.

Turning to `Oc1c(CN2CCCC2)cc(CSCc2ccccc2)c2cccnc12`, the GI50 is 1200 nM and the TGI amounted to 3240 nM.

For `CCCCN(CCCC)CCc1c(C)cc(C)c(CCN(CCCC)CCCC)c1O`, the GI50 is 1830 nM and the TGI is 5510 nM.

`COC(=O)[C@H]1[C@H]2C[C@@H]3c4[nH]c5cc(OC)ccc5c4CCN3C[C@H]2C[C@@H](OC(=O)/C=C/c2cc(OC)c(OC)c(OC)c2)[C@@H]1OC`: the GI50 was 3270 nM and the TGI was determined as 11600 nM.

On to `CNCCNc1nc2ccccc2c2c(=O)c3cc(F)ccc3sc12`, for which the GI50 was 1700 nM and the TGI came to 3460 nM.

For the molecule `C[PH+](c1nc2ccccc2nc1[PH+](C)C(C)(C)C)C(C)(C)C.C[PH+](c1nc2ccccc2nc1[PH+](C)C(C)(C)C)C(C)(C)C.[Au+].[Cl-]` (centres undefined), the GI50 is 24.8 nM and the TGI stood at 90.4 nM.

Consider `CC1(C)[C@@H](OC(N)=O)C=C[C@]2(CO)[C@H]3CC[C@]4(C)[C@@H](c5ccc(=O)oc5)[C@@H](Cl)C[C@]4(O)C3=CC[C@@H]12`, for which the GI50 was 14.9 nM and the TGI is 67.4 nM.

As to `CCN1C(=O)N(CC)C2SC(N/N=C/c3ccc(F)cc3)=NC21` (centres undefined), the GI50 was 400 nM.

Take `N=c1ccc2nc3c(cc(N)c4ccccc43)oc-2c1`: the GI50 is 86.5 nM and the TGI is 423 nM.

Take `CC(=O)c1cccc(-c2cccc(-c3ccn(CCN4CCOCC4)n3)c2)c1`: the GI50 was 15200 nM and the TGI is greater than 20000 nM.

Regarding `CCCCCCNC(=O)Oc1ccc(/C(=C(/C)Cc2ccc(OC)cc2)c2ccc(OCCN(C)C)cc2)cc1`, the GI50 was 5400 nM and the TGI was found to be 10600 nM.

Regarding `CNCCNc1nc2ccccc2c2c(=O)c3cc(OC)ccc3sc12`, the GI50 was 1490 nM and the TGI turned out to be 3030 nM.

With `C[C@]12CC[C@@H](OC(=O)N(CCCl)N=O)C[C@@H]1CC[C@@H]1[C@@H]2CC[C@]2(C)C(=O)CC[C@@H]12`, the GI50 was 867 nM and the TGI came out at 12300 nM.

As to `NC(=O)c1c(NC(=O)c2ccccc2C(F)(F)F)sc2c1CCC(=O)C2`, the GI50 is 2250 nM and the TGI is 6090 nM.

Consider `CC(=O)c1cc(-c2ccccc2N)n(-c2ccc3c(c2)OCO3)c1C`, for which the GI50 was 50.7 nM and the TGI was greater than 72100 nM.

As for `CCCCNC(=O)Oc1ccc(/C(=C(/CC)Cc2ccccc2)c2ccc(OCCN3CCCCCC3)cc2)cc1`, the GI50 is 21500 nM and the TGI came to 46900 nM.

As for `C/C(=C(/c1ccc(O)cc1)c1ccc(Cl)cc1)c1ccccc1`, the GI50 is 601 nM and the TGI was determined as 2020 nM.

Regarding `Clc1ccc2c(c1)C(N1CCNCC1)=Nc1ccccc1O2`, the GI50 is 1220 nM and the TGI amounted to 2480 nM.

With `COc1cc2c(c(OC)c1OC)-c1ccc(O)c(=O)cc1[C@@H](NC(C)=O)CC2`, the GI50 was 4110 nM and the TGI is 27500 nM.

Turning to `CC12CC=CCC1CCC1C2CCC2(C)C(c3ccc(=O)oc3)CCC12O` (centres undefined), the GI50 is 276 nM and the TGI was determined as 858 nM.

Turning to `COc1cc(/C=C2\CN(C(=O)CCN3CCC(=NO)CC3)C/C(=C\c3cc(OC)c(OC)c(OC)c3)C2=O)cc(OC)c1OC`, the GI50 was 342 nM and the TGI stood at 1270 nM.

Regarding `COc1ccc(/C=C\c2cc(OC)c(OC)c(OC)c2)c(NS(=O)(=O)c2ccc(Cl)cc2)c1O`, the GI50 is 36.7 nM and the TGI amounted to 15000 nM.

Turning to `COc1ccc([C@@H](O)c2cc(-c3ncnc4cc(N5CCOCC5)ccc34)c(F)cc2Cl)nn1`, the GI50 is 1690 nM and the TGI worked out at 8260 nM.

Consider `CC(C)(C)n1cc(-c2ccnc(NCCCNS(=O)(=O)c3ccc(Br)cc3)c2)c(-c2cccc(O)c2)n1`, for which the GI50 is 2100 nM and the TGI was found to be 4800 nM.

As to `COc1cc2ncnc3c2cc1OCCCCCN(C)Cc1ccc(Br)cc1N3`, the GI50 was 46.3 nM and 39.3 nM; the TGI was 400 nM and 453 nM.
